Measurements from PubChem BioAssay (NCI).
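A five-concentration, 48-hour dose response in 96-well plates underlies each endpoint, interpolated linearly between surrounding concentrations. Abbreviation: GI50, concentration required for 50% inhibition of growth. TGI is the concentration that stops growth completely.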

Experiments:
Assay in all cases: growth of human tumour cells (NCI), 48 h
HOP-92 NSCLC = test system: HOP-92 NSCLC
ACHN renal = test system: ACHN renal
BT-549 breast = test system: BT-549 breast
SF-539 CNS = test system: SF-539 CNS
KM12 colon = test system: KM12 colon
HT29 colon = test system: HT29 colon
SK-MEL-5 melanoma = test system: SK-MEL-5 melanoma
SK-MEL-2 melanoma = test system: SK-MEL-2 melanoma
COLO 205 colon = test system: COLO 205 colon
UACC-257 melanoma = test system: UACC-257 melanoma
RPMI-8226 leukemia = test system: RPMI-8226 leukemia
MDA-MB-231 breast = test system: MDA-MB-231 breast
DU-145 prostate = test system: DU-145 prostate
HCT-15 colon = test system: HCT-15 colon
SNB-75 CNS = test system: SNB-75 CNS
OVCAR-5 ovarian = test system: OVCAR-5 ovarian
CCRF-CEM leukemia = test system: CCRF-CEM leukemia
CAKI-1 renal = test system: CAKI-1 renal
RXF 393 renal = test system: RXF 393 renal
K-562 leukemia = test system: K-562 leukemia
HL-60(TB) leukemia = test system: HL-60(TB) leukemia
A498 renal = test system: A498 renal
SW-620 colon = test system: SW-620 colon
UACC-62 melanoma = test system: UACC-62 melanoma
SK-MEL-28 melanoma = test system: SK-MEL-28 melanoma
NCI-H23 lung = test system: NCI-H23 lung
NCI-H226 lung = test system: NCI-H226 lung
MDA-MB-435 = test system: MDA-MB-435
OVCAR-8 ovarian = test system: OVCAR-8 ovarian
TK-10 renal = test system: TK-10 renal
HOP-62 NSCLC = test system: HOP-62 NSCLC
EKVX NSCLC = test system: EKVX NSCLC
MALME-3M melanoma = test system: MALME-3M melanoma
SN12C renal = test system: SN12C renal
MCF7 breast = test system: MCF7 breast
NCI/ADR-RES ovarian = test system: NCI/ADR-RES ovarian
HCT-116 colon = test system: HCT-116 colon
SF-295 CNS = test system: SF-295 CNS
UO-31 renal = test system: UO-31 renal
HS 578T breast = test system: HS 578T breast
NCI-H522 lung = test system: NCI-H522 lung
OVCAR-3 ovarian = test system: OVCAR-3 ovarian
SF-268 CNS = test system: SF-268 CNS
A549 NSCLC = test system: A549 NSCLC
HCC-2998 colon = test system: HCC-2998 colon
U251 CNS = test system: U251 CNS
SNB-19 CNS = test system: SNB-19 CNS
LOX IMVI melanoma = test system: LOX IMVI melanoma
M14 melanoma = test system: M14 melanoma
MOLT-4 leukemia = test system: MOLT-4 leukemia
T-47D breast = test system: T-47D breast
PC-3 prostate = test system: PC-3 prostate
NCI-H460 lung = test system: NCI-H460 lung
IGROV1 ovarian = test system: IGROV1 ovarian

Work on `O=C(/C=C/c1cc2ccccc2[nH]c1=O)c1ccc(O)cc1` yielded a GI50 (HOP-92 NSCLC) of 3.26 µM, a TGI (HOP-92 NSCLC) of 23.2 µM and a GI50 (ACHN renal) of 2.67 µM. For the same molecule, the TGI (ACHN renal) was 8.86 µM, the GI50 (BT-549 breast) was 1.95 µM and the TGI (BT-549 breast) was 5.35 µM. For the same molecule, the GI50 (SF-539 CNS) was 2.55 µM, the TGI (SF-539 CNS) was 8.64 µM and the GI50 (KM12 colon) was 1.89 µM. For the same molecule, the TGI (KM12 colon) was 4.5 µM, the GI50 (HT29 colon) was 3.61 µM and the TGI (HT29 colon) was 12.1 µM. For the same molecule, the GI50 (SK-MEL-5 melanoma) was 3.98 µM, the TGI (SK-MEL-5 melanoma) was 13.3 µM and the GI50 (SK-MEL-2 melanoma) was 4.13 µM. It also gave a TGI (SK-MEL-2 melanoma) of 13.6 µM, a GI50 (COLO 205 colon) of 4.51 µM and a TGI (COLO 205 colon) of 19.7 µM. For the same molecule, the GI50 (UACC-257 melanoma) was 3.87 µM, the TGI (UACC-257 melanoma) was 16 µM and the GI50 (RPMI-8226 leukemia) was 3.2 µM. The TGI (RPMI-8226 leukemia) was 24.8 µM, the GI50 (MDA-MB-231 breast) was 3.51 µM and the TGI (MDA-MB-231 breast) was 15 µM. The GI50 (DU-145 prostate) was 4.02 µM, the TGI (DU-145 prostate) was 14.3 µM and the GI50 (HCT-15 colon) was 2.71 µM. For the same molecule, the TGI (HCT-15 colon) was 12.8 µM, the GI50 (SNB-75 CNS) was 9.3 µM and the TGI (SNB-75 CNS) was 23 µM. It also gave a GI50 (OVCAR-5 ovarian) of 3.2 µM, a TGI (OVCAR-5 ovarian) of 12.8 µM and a GI50 (CCRF-CEM leukemia) of 2.38 µM. It also gave a TGI (CCRF-CEM leukemia) of over 100 µM, a GI50 (CAKI-1 renal) of 4.71 µM and a TGI (CAKI-1 renal) of over 100 µM. The GI50 (RXF 393 renal) was 1.65 µM, the TGI (RXF 393 renal) was 3.23 µM and the GI50 (K-562 leukemia) was 3.89 µM. For the same molecule, the TGI (K-562 leukemia) was over 100 µM, the GI50 (HL-60(TB) leukemia) was 2.66 µM and the TGI (HL-60(TB) leukemia) was 6.86 µM. For the same molecule, the GI50 (A498 renal) was 8.44 µM, the TGI (A498 renal) was 21.3 µM and the GI50 (SW-620 colon) was 1.89 µM. The TGI (SW-620 colon) was 4.45 µM, the GI50 (UACC-62 melanoma) was 2.88 µM and the TGI (UACC-62 melanoma) was 8.73 µM. The GI50 (SK-MEL-28 melanoma) was 5.11 µM, the TGI (SK-MEL-28 melanoma) was 19.5 µM and the GI50 (NCI-H23 lung) was 3.18 µM. The TGI (NCI-H23 lung) was 20 µM, the GI50 (NCI-H226 lung) was 3.29 µM and the TGI (NCI-H226 lung) was 10.9 µM. The GI50 (MDA-MB-435) was 2.94 µM, the TGI (MDA-MB-435) was 16.8 µM and the GI50 (OVCAR-8 ovarian) was 3.23 µM. The TGI (OVCAR-8 ovarian) was 21.1 µM, the GI50 (TK-10 renal) was 3.81 µM and the TGI (TK-10 renal) was 11.8 µM. It also gave a GI50 (HOP-62 NSCLC) of 2.62 µM, a TGI (HOP-62 NSCLC) of 8.18 µM and a GI50 (EKVX NSCLC) of 13.4 µM. It also gave a TGI (EKVX NSCLC) of 27.2 µM, a GI50 (MALME-3M melanoma) of 10.4 µM and a TGI (MALME-3M melanoma) of 33.6 µM. The GI50 (SN12C renal) was 3.48 µM, the TGI (SN12C renal) was 16 µM and the GI50 (MCF7 breast) was 3.49 µM. For the same molecule, the TGI (MCF7 breast) was 16.8 µM, the GI50 (NCI/ADR-RES ovarian) was 2.9 µM and the TGI (NCI/ADR-RES ovarian) was over 100 µM. The GI50 (HCT-116 colon) was 1.94 µM, the TGI (HCT-116 colon) was 4.38 µM and the GI50 (SF-295 CNS) was 7.04 µM. For the same molecule, the TGI (SF-295 CNS) was 44 µM, the GI50 (UO-31 renal) was 4.38 µM and the TGI (UO-31 renal) was 26.7 µM. The GI50 (HS 578T breast) was 6.14 µM, the TGI (HS 578T breast) was over 100 µM and the GI50 (NCI-H522 lung) was 1.7 µM. It also gave a TGI (NCI-H522 lung) of 3.29 µM, a GI50 (OVCAR-3 ovarian) of 3.22 µM and a TGI (OVCAR-3 ovarian) of 11.8 µM. It also gave a GI50 (SF-268 CNS) of 3.76 µM, a TGI (SF-268 CNS) of 23.3 µM and a GI50 (A549 NSCLC) of 2.73 µM. The TGI (A549 NSCLC) was 11.8 µM, the GI50 (HCC-2998 colon) was 4.13 µM and the TGI (HCC-2998 colon) was 16 µM. For the same molecule, the GI50 (U251 CNS) was 2.6 µM, the TGI (U251 CNS) was 10.9 µM and the GI50 (SNB-19 CNS) was 4.59 µM. For the same molecule, the TGI (SNB-19 CNS) was 18 µM, the GI50 (LOX IMVI melanoma) was 2.47 µM and the TGI (LOX IMVI melanoma) was 12.7 µM. The GI50 (M14 melanoma) was 2.6 µM, the TGI (M14 melanoma) was 6.57 µM and the GI50 (MOLT-4 leukemia) was 3.04 µM. The TGI (MOLT-4 leukemia) was 9.91 µM, the GI50 (T-47D breast) was 4.19 µM and the TGI (T-47D breast) was 20.4 µM. It also gave a GI50 (PC-3 prostate) of 5.39 µM, a TGI (PC-3 prostate) of 55.3 µM and a GI50 (NCI-H460 lung) of 2.39 µM. It also gave a TGI (NCI-H460 lung) of 6.87 µM, a GI50 (IGROV1 ovarian) of 4.35 µM and a TGI (IGROV1 ovarian) of 45.1 µM.
